What is called IC50 is the concentration needed to halve the response being measured. Low readings indicate greater potency in that assay, high ones weaker potency in that assay.

IC50 data for 16 molecules are collected here from ChEMBL document CHEMBL4330058, “Discovery of novel anti-angiogenesis agents. Part 10: Multi-target inhibitors of VEGFR-2, Tie-2 and EphB4 incorporated with 1,2,3-triazol” (Eur J Med Chem, 2019).

SMILES strings stand for the structures.

One experiment has as its target Angiopoietin-1 receptor (Homo sapiens, UniProt Q02763). The experiment is described as follows: Inhibition of TIE2 (unknown origin) after 4 hrs by ADP-Glo reagent based luminescent assay. On the technique in general: In ADP-Glo the light output rises with the ADP produced.
Another experiment has as its system EA.hy 926. The experiment is described as follows: Anti-angiogenic activity against human EAhy926 after 24 hrs by CCK-8 assay. Type of experiment: functional, cell-based. The note with it: EA.hy 926, 24 h.
The next experiment has as its target T1, Ephrin type-B receptor 4 (Homo sapiens, UniProt P54760).
T1 sequence (P54760 whole entry): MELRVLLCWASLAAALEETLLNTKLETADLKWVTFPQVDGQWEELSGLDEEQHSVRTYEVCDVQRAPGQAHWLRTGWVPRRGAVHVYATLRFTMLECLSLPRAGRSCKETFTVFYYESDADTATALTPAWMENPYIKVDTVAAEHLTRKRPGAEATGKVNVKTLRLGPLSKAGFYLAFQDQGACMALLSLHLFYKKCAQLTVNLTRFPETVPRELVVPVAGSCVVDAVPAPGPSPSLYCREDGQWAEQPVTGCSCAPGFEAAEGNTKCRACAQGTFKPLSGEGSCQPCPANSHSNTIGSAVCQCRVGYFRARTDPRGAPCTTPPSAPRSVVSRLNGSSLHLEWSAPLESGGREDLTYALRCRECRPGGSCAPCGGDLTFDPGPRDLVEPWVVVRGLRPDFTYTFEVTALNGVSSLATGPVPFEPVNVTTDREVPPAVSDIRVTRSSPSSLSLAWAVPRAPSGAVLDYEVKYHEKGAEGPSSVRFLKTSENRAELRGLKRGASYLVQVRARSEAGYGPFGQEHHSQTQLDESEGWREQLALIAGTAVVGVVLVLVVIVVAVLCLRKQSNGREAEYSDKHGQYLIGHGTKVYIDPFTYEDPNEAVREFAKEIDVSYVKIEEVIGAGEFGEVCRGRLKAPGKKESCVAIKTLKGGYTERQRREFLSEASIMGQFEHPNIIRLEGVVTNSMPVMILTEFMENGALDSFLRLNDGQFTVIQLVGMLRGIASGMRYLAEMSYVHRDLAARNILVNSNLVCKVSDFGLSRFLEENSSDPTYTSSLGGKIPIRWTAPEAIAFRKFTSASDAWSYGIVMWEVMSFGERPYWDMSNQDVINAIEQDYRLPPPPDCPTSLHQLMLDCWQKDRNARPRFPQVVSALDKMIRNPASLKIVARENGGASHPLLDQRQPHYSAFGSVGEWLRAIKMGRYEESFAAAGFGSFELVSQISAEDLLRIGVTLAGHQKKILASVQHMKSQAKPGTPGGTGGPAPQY
The experiment is described as follows: Inhibition of EPHB4 (unknown origin) after 4 hrs by ADP-Glo reagent based luminescent assay.

A further experiment has as its system PANC-1. The experiment is described as follows: Antiproliferative activity against human PANC1 cells.
The test system of the next experiment is HeLa. Briefly: Antiproliferative activity against human HeLa cells.
The next experiment relates to A-431. The experiment is described as follows: Antiproliferative activity against human A431 cells.
In a further experiment the test system is MCF7. Briefly: Antiproliferative activity against human MCF7 cells.
The test system of another experiment is LoVo. Briefly: Antiproliferative activity against human LoVo cells.
The next experiment deals with SMMC-7721. The experiment is described as follows: Antiproliferative activity against human SMMC7721 cells.
The subject of another experiment is A549. The experiment is described as follows: Antiproliferative activity against human A549 cells.
Experiment [1] concerns the target Vascular endothelial growth factor receptor 2 (Homo sapiens, UniProt P35968). The experiment is described as follows: Inhibition of VEGFR2 (unknown origin) after 1 hr by ADP-Glo reagent based luminescent assay.

Sequence of Angiopoietin-1 receptor (Q02763 whole entry): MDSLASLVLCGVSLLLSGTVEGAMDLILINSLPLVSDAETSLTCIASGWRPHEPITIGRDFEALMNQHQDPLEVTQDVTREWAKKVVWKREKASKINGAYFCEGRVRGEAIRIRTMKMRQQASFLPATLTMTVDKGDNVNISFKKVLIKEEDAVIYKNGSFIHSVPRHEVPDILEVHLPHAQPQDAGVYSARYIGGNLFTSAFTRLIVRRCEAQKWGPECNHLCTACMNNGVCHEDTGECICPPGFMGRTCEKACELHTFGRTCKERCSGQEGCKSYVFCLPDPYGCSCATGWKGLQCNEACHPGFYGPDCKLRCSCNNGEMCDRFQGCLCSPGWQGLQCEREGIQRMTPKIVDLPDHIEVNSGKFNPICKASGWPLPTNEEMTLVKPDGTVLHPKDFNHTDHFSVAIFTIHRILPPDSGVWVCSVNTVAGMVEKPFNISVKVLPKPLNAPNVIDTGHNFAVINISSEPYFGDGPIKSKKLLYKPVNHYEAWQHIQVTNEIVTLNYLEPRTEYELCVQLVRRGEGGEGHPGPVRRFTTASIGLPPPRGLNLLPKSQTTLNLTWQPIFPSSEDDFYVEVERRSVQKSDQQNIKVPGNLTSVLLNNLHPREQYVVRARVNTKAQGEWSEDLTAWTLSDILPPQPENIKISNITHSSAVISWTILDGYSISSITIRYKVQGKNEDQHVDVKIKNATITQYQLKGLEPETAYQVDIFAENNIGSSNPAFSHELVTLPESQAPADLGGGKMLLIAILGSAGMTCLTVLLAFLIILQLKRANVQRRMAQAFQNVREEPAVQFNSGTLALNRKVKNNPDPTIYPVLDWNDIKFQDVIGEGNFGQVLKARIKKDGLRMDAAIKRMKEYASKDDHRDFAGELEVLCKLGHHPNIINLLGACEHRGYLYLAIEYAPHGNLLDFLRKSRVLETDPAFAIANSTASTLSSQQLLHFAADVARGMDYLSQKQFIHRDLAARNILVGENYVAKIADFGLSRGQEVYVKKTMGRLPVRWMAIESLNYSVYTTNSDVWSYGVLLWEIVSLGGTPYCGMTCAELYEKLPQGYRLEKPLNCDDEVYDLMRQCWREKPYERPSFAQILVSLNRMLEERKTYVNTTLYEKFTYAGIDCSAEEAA
Sequence of Vascular endothelial growth factor receptor 2 (P35968 whole entry): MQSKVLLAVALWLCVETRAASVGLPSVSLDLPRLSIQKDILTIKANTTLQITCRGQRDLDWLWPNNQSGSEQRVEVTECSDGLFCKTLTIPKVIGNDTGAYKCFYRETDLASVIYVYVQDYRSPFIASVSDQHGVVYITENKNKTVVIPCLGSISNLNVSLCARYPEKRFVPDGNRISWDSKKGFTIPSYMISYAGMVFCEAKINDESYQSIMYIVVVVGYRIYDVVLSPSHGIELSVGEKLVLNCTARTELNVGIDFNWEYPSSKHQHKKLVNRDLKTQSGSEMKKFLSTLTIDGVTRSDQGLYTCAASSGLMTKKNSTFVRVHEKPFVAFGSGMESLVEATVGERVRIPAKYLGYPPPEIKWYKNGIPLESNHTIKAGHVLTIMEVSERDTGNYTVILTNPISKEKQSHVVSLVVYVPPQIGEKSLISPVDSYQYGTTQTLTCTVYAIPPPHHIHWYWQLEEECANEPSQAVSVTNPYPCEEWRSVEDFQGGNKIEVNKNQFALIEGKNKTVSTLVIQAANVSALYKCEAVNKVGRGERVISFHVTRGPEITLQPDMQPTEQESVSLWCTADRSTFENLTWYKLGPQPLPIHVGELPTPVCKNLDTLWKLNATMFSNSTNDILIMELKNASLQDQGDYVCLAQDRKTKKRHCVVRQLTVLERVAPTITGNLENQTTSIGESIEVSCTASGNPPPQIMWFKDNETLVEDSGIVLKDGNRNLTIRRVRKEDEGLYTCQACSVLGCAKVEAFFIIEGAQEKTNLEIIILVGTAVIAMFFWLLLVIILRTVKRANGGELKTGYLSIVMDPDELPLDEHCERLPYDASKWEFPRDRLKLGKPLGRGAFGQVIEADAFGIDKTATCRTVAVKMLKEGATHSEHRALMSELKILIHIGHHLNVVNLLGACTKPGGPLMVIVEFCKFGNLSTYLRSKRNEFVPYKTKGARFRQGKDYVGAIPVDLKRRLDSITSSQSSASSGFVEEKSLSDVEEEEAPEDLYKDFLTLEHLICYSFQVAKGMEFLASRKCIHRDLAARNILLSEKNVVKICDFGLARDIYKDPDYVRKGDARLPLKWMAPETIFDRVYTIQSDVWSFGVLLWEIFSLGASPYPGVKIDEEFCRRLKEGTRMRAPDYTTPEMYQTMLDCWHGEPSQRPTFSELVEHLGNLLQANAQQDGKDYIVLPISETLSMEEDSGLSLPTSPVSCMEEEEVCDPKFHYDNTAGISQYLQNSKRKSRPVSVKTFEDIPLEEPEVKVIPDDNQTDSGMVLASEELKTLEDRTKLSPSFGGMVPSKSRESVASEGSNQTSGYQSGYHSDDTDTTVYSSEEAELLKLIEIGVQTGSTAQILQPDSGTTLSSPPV

On to `COc1ccc(-c2ccc(Cn3cc(-c4ccccc4)nn3)cc2)cn1`, for which the 50% inhibitory concentration (IC50) against Angiopoietin-1 receptor was more than 1000 nM; in the experiment with EA.hy 926, 110000 nM; against Ephrin type-B receptor 4, more than 1000 nM.

As to `COc1ccc(-c2ccc(Cn3cc(-c4ccc(C)cc4)nn3)cc2)cn1`, the half-maximal inhibitory concentration (IC50) in the experiment with EA.hy 926 came to 678000 nM.

Take `CNC(=O)c1cc(Oc2ccc(NC(=O)Nc3ccc(Cl)c(C(F)(F)F)c3)cc2)ccn1` [SORAFENIB]: the concentration for half-maximal inhibition (IC50) was found to be 150 nM in the experiment on PANC-1; 270 nM with HeLa; 120 nM in the experiment with A-431; 90 nM with MCF7; 11700 nM in the experiment on EA.hy 926; 250 nM in the experiment on LoVo. For the same molecule, the half-inhibitory concentration (IC50) in the experiment with SMMC-7721 was 300 nM; with A549, 80 nM.

Regarding `COc1ccc(-c2ccc(Cn3cc(-c4ccc(C(F)(F)F)cc4)nn3)cc2)cn1`, the figures for the IC50 with EA.hy 926 and against Ephrin type-B receptor 4 were 122000 nM and more than 1000 nM, respectively.

In the case of `FC(F)(F)c1cccc(-c2cn(Cc3ccc(-c4cccnc4)cc3)nn2)c1`, the IC50 is 137000 nM in the experiment on EA.hy 926, more than 1000 nM in [1] and more than 1000 nM against Ephrin type-B receptor 4.

With `FC(F)(F)c1ccc(-c2cn(Cc3ccc(-c4cccnc4)cc3)nn2)cc1`, the half-inhibitory concentration (IC50) was more than 1000 nM on Angiopoietin-1 receptor, 170000 nM in the experiment with EA.hy 926 and more than 1000 nM against Ephrin type-B receptor 4.

Take `Cc1cccc(-c2cn(Cc3ccc(-c4cccnc4)cc3)nn2)c1`: the half-inhibitory concentration (IC50) with EA.hy 926 was 134000 nM; against Ephrin type-B receptor 4 it was more than 1000 nM.

In the case of `COc1ccc(-c2ccc(Cn3cc(-c4cccc(Cl)c4)nn3)cc2)cn1`, half-maximal inhibition with EA.hy 926 (IC50) was put at 440000 nM.

Turning to `c1ccc(-c2cn(Cc3ccc(-c4cccnc4)cc3)nn2)cc1`, inhibition in the experiment with EA.hy 926 was half-maximal at 12100 nM (IC50).

As to `Fc1ccccc1-c1cn(Cc2ccc(-c3cccnc3)cc2)nn1`, the IC50 in the experiment on EA.hy 926 was determined as 9280 nM.

Take `COc1ccc(-c2ccc(Cn3cc(-c4cccc(C)c4)nn3)cc2)cn1`: the IC50 was more than 1000 nM at Angiopoietin-1 receptor and 43900 nM in the experiment with EA.hy 926.

In the experiment on EA.hy 926, `Nc1cccc(-c2cn(Cc3ccc(-c4cccnc4)cc3)nn2)c1` returned a 50% inhibitory concentration (IC50) of 24300 nM.

`Clc1cccc(-c2cn(Cc3ccc(-c4cccnc4)cc3)nn2)c1` gave an IC50 with EA.hy 926 of 431000 nM.

`COc1ccc(-c2ccc(Cn3cc(-c4cccc(N)c4)nn3)cc2)cn1`: the half-maximal inhibitory concentration (IC50) is 490 nM with PANC-1; 290 nM in the experiment with HeLa; 70 nM in the experiment with A-431; 350 nM in the experiment with MCF7; 14500 nM in the experiment with EA.hy 926; 100 nM in the experiment on LoVo. In addition, the IC50 in the experiment on SMMC-7721 was determined as 240 nM; with A549 it was 180 nM.

As for `Cc1ccc(-c2cn(Cc3ccc(-c4cccnc4)cc3)nn2)cc1`, the IC50 on Angiopoietin-1 receptor is more than 1000 nM; with EA.hy 926, 6490 nM.

On to `COc1ccc(-c2ccc(Cn3cc(-c4ccccc4F)nn3)cc2)cn1`, for which the 50% inhibitory concentration (IC50) was 708000 nM with EA.hy 926 and more than 1000 nM in [1].
